Calls of active or inactive are those of the source.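 Rule for the calls: active = AC50, the dose giving half-maximal effect, exceeds a fixed cutoff for a compound that rescues yeast growth under heat; inactive = the rest, inconclusive results apart.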 Some results are limits rather than exact numbers.

Drawing on PubChem BioAssay AID463199 (Broad Institute, 2010), this text covers AC50 for 88 molecules.

The assay has as its system S. cerevisiae Burl-1 ts mutant growth, BacTiter-Glo, 38.5C 24 h. In words: growth induction of Burl-1 ts yeast mutant, dose response, counter-screen for SUMOylation pathway inhibitor project, whole organism, S. cerevisiae, luminescence (AID 463199). On the technique in general: A counterscreen serves to expose hits that act by an unwanted route or on another target.
Take `CSc1ncccc1C(=O)NC1CCCc2c1cnn2-c1ccc(C)c(C)c1` (stereo not drawn): the AC50 was > 42 µM (inactive).
With `Nc1cc(C(=O)OCC(=O)N2CCOCC2)ccc1Cl`, the AC50 was > 42 µM (inactive).
The figure for `CN(CC(=O)N1CCc2[nH]c3ccc(F)cc3c2C1)CC1OCCO1` is > 42 µM (inactive); for `CC(=O)/C=C/n1c(=S)oc2ccccc21` it is > 42 µM (inactive); for `CCOP(=O)(OCC)c1cc(CC)ccc1O` it is > 42 µM (inactive).
As for `CCn1c(SCC(=O)Nc2ccc(OCc3ccccc3)cc2)nnc1-c1ccco1`, the figure is > 42 µM (inactive); as for `CCOCCCNC(=O)C(c1ccc(OC)cc1)N(Cc1cccs1)C(=O)c1ccccn1` (stereo not drawn), > 42 µM (inactive).
Regarding `COc1c(C)cc(S(=O)(=O)NC2CC(C)(C)NC(C)(C)C2)c(C)c1C`, the AC50 is > 42 µM (inactive).
The figure for `COCCn1c(=NC(=O)c2ccc(S(=O)(=O)N3CCOCC3)cc2)sc2cc(S(N)(=O)=O)ccc21` is > 42 µM (inactive).
The figure for `Cc1[nH]oc(=O)c1N=Nc1c(Cl)cccc1Cl` is > 42 µM (inactive); for `CCc1c(C)c2ccc(OCC(=O)OC(C)C)c(C)c2oc1=O` it is > 42 µM (inactive); for `CCN1C(=S)N[C@@H](CCc2ccccc2)C(C(=O)OC)=C1C` it is > 42 µM (inactive).
As for `Cc1cc(C)cc(C(=O)N2CCC3(CC2)NCCc2[nH]cnc23)c1`, the figure is > 42 µM (inactive); as for `CCOC(=O)CS(=O)(=O)c1ccc2ccccc2c1`, > 42 µM (inactive); as for `CC(=O)Nc1cc2nn(-c3ccccc3)nc2cc1Cl`, > 42 µM (inactive).
For `O=C(NNC(=O)c1csc(N2CCOCC2)n1)c1ccc(Cl)nc1`, the AC50 was > 42 µM (inactive).
As for `CC1Cc2ccccc2N1C(=O)Cn1c(=O)cc(O)c2ccccc21` (stereo not drawn), the figure is > 42 µM (inactive); as for `Cc1ccc(Oc2ccc(OCC(=O)Nc3ccncc3)cc2)cc1`, > 42 µM (inactive); as for `COc1ccc(OCC(=O)O/N=C(\N)Cc2ccc(Cl)cc2)cc1`, > 42 µM (inactive).
As for `CC(C)CCOCc1nc2sc3c(c2c(=O)[nH]1)CCC(C)C3` (stereo not drawn), the figure is > 42 µM (inactive); as for `CCn1ncc(Br)c1C(=O)Nc1ccc(OC(F)(F)F)cc1`, > 42 µM (inactive).
Turning to `CC1CCCC(C)N1C(=O)CSc1nnnn1-c1cccc2c1CCCC2` (stereo not drawn), the AC50 was > 42 µM (inactive).
As for `COC(=O)c1cc(Cl)c(NC(=O)C(C)C)cc1OC`, the figure is > 42 µM (inactive); as for `Cc1c(C(=O)N2CCN(CCc3ccccc3)CC2)oc2ccccc12`, > 42 µM (inactive); as for `O=C(O)c1ccc(S(=O)(=O)N2CCN(c3ccccn3)CC2)cc1`, > 42 µM (inactive).
`O=C(Cn1sc2ccccc2c1=O)NC12CC3CC(CC(C3)C1)C2`: the AC50 is > 42 µM (inactive).
As for `Cc1nc(NC(=O)CSc2nc(N)cc(N)n2)sc1C`, the figure is > 42 µM (inactive).
As for `CCCCC(=O)NCCc1ccc(S(N)(=O)=O)cc1`, the figure is > 42 µM (inactive); as for `COc1cccc(NC(=O)CNC(=O)c2ccc(C)cc2)c1`, > 42 µM (inactive).
The figure for `Cc1c(=O)n(OCc2ccccn2)c2ccccc2[n+]1[O-]` is > 42 µM (inactive).
As to `COC(=O)[C@@H]1C[C@@H]2CC[C@@H](O)C[C@@H]2N1Cc1ccc(N2CCN(C)CC2)cc1`, the AC50 is > 42 µM (inactive).
The figure for `CCC(C)(C)n1nnnc1C(c1ccc(OC)c(OC)c1)N1CCN(c2cccc(OC)c2)CC1` (stereo not drawn) is > 42 µM (inactive); for `Cc1cccc(OCC(O)CN2C(C)(C)CC(O)CC2(C)C)c1` (stereo not drawn) it is > 42 µM (inactive); for `COc1cccc(/C=C2\SC(N3CCC(C)CC3)=NC2=O)c1OC` it is > 42 µM (inactive).
The figure for `C[C@H](NC(=O)OC(C)(C)C)C(=O)NCC1CCC(C(=O)N[C@@H](Cc2ccccc2)C(=O)O)CC1` (stereo partly drawn) is > 42 µM (inactive); for `N#C/C(=C\c1ccc(O)c(O)c1)C(=O)Nc1ccccc1` it is > 42 µM (inactive); for `O=C(Nc1ccc(F)cc1)c1cccnn1` it is > 42 µM (inactive).
As for `CCCn1c(N)cc(=O)n(CCC)c1=O`, the figure is > 42 µM (inactive); as for `CC1CCCC(C)N1CCCNC(=O)c1csc2c1CCCCC2` (stereo not drawn), > 42 µM (inactive).
With `O=C(Nc1nc(-c2ccccn2)cs1)c1ccc2c(c1)OCCO2`, the AC50 is > 42 µM (inactive).
In the case of `Cc1ccc(CNC(=O)c2ccc(N3CCC4(CC3)CC(c3ccccc3)=NO4)c(NC(=O)c3cccc(C)c3)c2)cc1`, the AC50 is > 42 µM (inactive).
As for `CCOC(=O)C1CCN(C(=O)COc2ccc(S(=O)(=O)N3CCOCC3)cc2C)CC1`, the figure is > 42 µM (inactive); as for `CN1CCN(C(=O)CCN2C(=O)/C(=C/c3ccccc3Cl)SC2=S)CC1`, > 42 µM (inactive).
As for `COc1ccc(CN2CCCCCC2)cc1`, the figure is > 42 µM (inactive); as for `Cc1ccc(N(CC(=O)NCCc2ccc(Cl)cc2)S(=O)(=O)c2c(C)noc2C)cc1`, > 42 µM (inactive).
As for `CC(=O)c1c(Nc2cccc(F)c2)oc(C)cc1=O`, the figure is > 42 µM (inactive).
Turning to `COc1ccc(OC(=O)c2ccc(Cl)cc2)c(C(C)=O)c1`, the AC50 was > 42 µM (inactive).
The figure for `CN1C(=O)C(O)(CC(=O)c2ccccc2O)c2cc(Br)ccc21` (stereo not drawn) is > 42 µM (inactive); for `Cc1ccc(S(=O)(=O)N(C)c2ccc(OC(=O)CN3C(=O)NC4(CCCC4)C3=O)cc2)cc1C` it is > 42 µM (inactive).
The figure for `COc1ccc(C2CC(c3cccs3)=NN2C(=O)c2ccccc2)cc1OC` (stereo not drawn) is > 42 µM (inactive).
For `COc1cc(C(C2=C(O)CC(C)(C)CC2=O)C2C(=O)CC(C)(C)CC2=O)cc(OC)c1OC` (stereo not drawn), the AC50 is > 42 µM (inactive).
Turning to `COCC(=O)n1nc(NCc2ccc(OC)cc2)nc1NCc1ccc(OC)cc1`, the AC50 was > 42 µM (inactive).
The figure for `O=C1CC(c2c[nH]c3ccccc23)C(=O)N1c1ccccc1` (stereo not drawn) is > 42 µM (inactive); for `CC(C)C[C@@H](CO)N1CCN(Cc2cccnc2)CCC1=O` it is > 42 µM (inactive); for `COC(=O)c1ccccc1SC(CC(=O)c1ccccc1)c1ccc(F)cc1` (stereo not drawn) it is > 42 µM (inactive).
As for `O=C(Cc1cccs1)N1CCCC(c2nc3c(nnn3Cc3ccc(F)cc3)c(=O)[nH]2)C1` (stereo not drawn), the figure is > 42 µM (inactive); as for `COc1ccccc1N1CCN(C(=O)c2ccc(-c3ccccc3)cc2)CC1`, > 42 µM (inactive); as for `O=C(CCNS(=O)(=O)c1cccc2nsnc12)NCCC1=CCCCC1`, > 42 µM (inactive).
The figure for `O=C(Nc1ccccn1)c1ccc(CN(c2ccccc2)S(=O)(=O)c2ccccc2)cc1` is > 42 µM (inactive); for `C=C(Cl)COC(=O)C1C2C=CC(C2)C1C(=O)O` (stereo not drawn) it is > 42 µM (inactive); for `O=C(CSc1nc(-c2ccccc2)nc2ccc(F)cc12)Nc1cccc(C(=O)O)c1` it is > 42 µM (inactive).
For `CC(=O)c1ccc(N=C2SCCCN2C(=O)C2CCCC2)cc1`, the AC50 was > 42 µM (inactive).
With `CC(C)c1cc(N2CCOCC2)n2ncc(-c3ccccc3)c2n1`, the AC50 is > 42 µM (inactive).
The figure for `CC1=C(C)CS(=O)N(S(=O)(=O)c2ccc(Cl)cc2)C1` (stereo not drawn) is 12.1 µM; for `COc1cc(S(=O)(=O)N2CCN(c3ccccc3)CC2)ccc1F` it is > 42 µM (inactive); for `O=C(Nc1ccccc1N1CCN(c2ccccc2)CC1)c1cccc(F)c1` it is > 42 µM (inactive).
As for `CCCC(O)(c1ccc(Br)cc1)C(CN1CCOCC1)c1ccc(Cl)cc1` (stereo not drawn), the figure is > 42 µM (inactive); as for `Cc1cccc(N2C(=O)CSC2c2cccnc2)c1` (stereo not drawn), > 42 µM (inactive).
As for `CCNC(=O)COc1ccc(S(=O)(=O)Nc2ccccc2)cc1`, the figure is > 21 µM (inactive); as for `O=C(O)c1ccc(Cl)c(NCc2cccs2)c1`, > 42 µM (inactive).
`Cc1ccc(CC(=O)O/N=C(\N)c2cccc([N+](=O)[O-])c2)cc1`: the AC50 was > 42 µM (inactive).
Consider `Cc1ccccc1-n1c(-c2cccnc2)n[nH]c1=S`, for which the AC50 was > 42 µM (inactive).
As for `N/C(=N\N=C\c1ccc(O)cc1)c1nonc1N`, the figure is > 42 µM (inactive); as for `CN(C)C(CNC(=O)CNC(=O)c1ccc(Br)cc1)c1ccccc1` (stereo not drawn), > 42 µM (inactive).
The figure for `Cc1ccc(SCCNC(=O)CN2C(=O)c3ccccc3S2(=O)=O)cc1` is > 42 µM (inactive).
The figure for `COc1ccc(S(=O)(=O)NCC(=O)N(CC(=O)NCC2CCCO2)c2ccccc2C)cc1` (stereo not drawn) is > 42 µM (inactive); for `O=C(Nc1cccc(C(=O)Nc2ccc(F)cc2F)c1)c1ccccc1` it is > 42 µM (inactive).
Consider `COCCN(C(=O)C1CC1)c1nnc(-c2ccc(C)cc2)s1`, for which the AC50 was > 42 µM (inactive).
The figure for `CCOC(=O)c1ccc(NC(=S)NCCCN2CCOCC2)cc1` is > 42 µM (inactive).
As for `Cc1ccc(-c2csc3ncn(CC(=O)N4CCOCC4)c(=O)c23)cc1`, the figure is > 42 µM (inactive); as for `O=C(COc1ccccc1Cl)c1ccc[nH]1`, > 42 µM (inactive); as for `N#Cc1ccc(C23CC4(C2)[C@H](CN(Cc2ccc(C(F)(F)F)cc2)[C@@H]4c2ccccc2)C3c2ccc(C(F)(F)F)cc2)cc1` (stereo partly drawn), > 42 µM (inactive).
As for `COc1ccccc1C(=O)N(NC(=O)Oc1ccccc1)C(C)(C)C`, the figure is > 42 µM (inactive); as for `O=C(CC(c1ccccc1)c1ccccc1O)NCCN1CCOCC1` (stereo not drawn), > 42 µM (inactive).
`CC1=CC(=O)C(C(C)C)=C/C1=N/OS(=O)(=O)c1ccccc1`: the AC50 was > 50 µM (inactive).
Take `O=C(Nc1nccs1)c1ccc(S(=O)(=O)c2ccccc2)cc1`: the AC50 was > 42 µM (inactive).
On to `Cc1ccccc1C(=O)/C=C1\NC(=O)CS1`, for which the AC50 is > 21 µM (inactive).
The figure for `COc1ccc2c(c1)OC[C@H]1[C@H]2N2C(=O)c3cc(Br)ccc3NC(=O)[C@@]2(C)[C@H]1c1ccccc1` is > 42 µM (inactive).

In general, AC50 refers to the midpoint of the concentration-response curve, whichever way the signal moves.
